According to ChEMBL document CHEMBL1909046, “DrugMatrix in vitro pharmacology data”:

Columns and labels:
[1] = target: Prostaglandin G/H synthase 1 (Homo sapiens, UniProt P23219); test: biochemical; assay type: tissue-based, Platelet; conditions: platelet;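 further: inhibition of COX-1 enzyme activity, with arachidonic acid supplied as substrate; in other assays of this panel Not Active means under 50% inhibition at 10 µM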
[2] = target: T1, Angiotensin-converting enzyme (Oryctolagus cuniculus, UniProt P12822); test: biochemical; assay type: tissue-based, Lung;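 further: enzymatic inhibition of angiotensin-converting enzyme measured with FAPGG as the substrate; in other assays of this panel Not Active means under 50% inhibition at 10 µM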
T1 sequence (P12822 whole entry): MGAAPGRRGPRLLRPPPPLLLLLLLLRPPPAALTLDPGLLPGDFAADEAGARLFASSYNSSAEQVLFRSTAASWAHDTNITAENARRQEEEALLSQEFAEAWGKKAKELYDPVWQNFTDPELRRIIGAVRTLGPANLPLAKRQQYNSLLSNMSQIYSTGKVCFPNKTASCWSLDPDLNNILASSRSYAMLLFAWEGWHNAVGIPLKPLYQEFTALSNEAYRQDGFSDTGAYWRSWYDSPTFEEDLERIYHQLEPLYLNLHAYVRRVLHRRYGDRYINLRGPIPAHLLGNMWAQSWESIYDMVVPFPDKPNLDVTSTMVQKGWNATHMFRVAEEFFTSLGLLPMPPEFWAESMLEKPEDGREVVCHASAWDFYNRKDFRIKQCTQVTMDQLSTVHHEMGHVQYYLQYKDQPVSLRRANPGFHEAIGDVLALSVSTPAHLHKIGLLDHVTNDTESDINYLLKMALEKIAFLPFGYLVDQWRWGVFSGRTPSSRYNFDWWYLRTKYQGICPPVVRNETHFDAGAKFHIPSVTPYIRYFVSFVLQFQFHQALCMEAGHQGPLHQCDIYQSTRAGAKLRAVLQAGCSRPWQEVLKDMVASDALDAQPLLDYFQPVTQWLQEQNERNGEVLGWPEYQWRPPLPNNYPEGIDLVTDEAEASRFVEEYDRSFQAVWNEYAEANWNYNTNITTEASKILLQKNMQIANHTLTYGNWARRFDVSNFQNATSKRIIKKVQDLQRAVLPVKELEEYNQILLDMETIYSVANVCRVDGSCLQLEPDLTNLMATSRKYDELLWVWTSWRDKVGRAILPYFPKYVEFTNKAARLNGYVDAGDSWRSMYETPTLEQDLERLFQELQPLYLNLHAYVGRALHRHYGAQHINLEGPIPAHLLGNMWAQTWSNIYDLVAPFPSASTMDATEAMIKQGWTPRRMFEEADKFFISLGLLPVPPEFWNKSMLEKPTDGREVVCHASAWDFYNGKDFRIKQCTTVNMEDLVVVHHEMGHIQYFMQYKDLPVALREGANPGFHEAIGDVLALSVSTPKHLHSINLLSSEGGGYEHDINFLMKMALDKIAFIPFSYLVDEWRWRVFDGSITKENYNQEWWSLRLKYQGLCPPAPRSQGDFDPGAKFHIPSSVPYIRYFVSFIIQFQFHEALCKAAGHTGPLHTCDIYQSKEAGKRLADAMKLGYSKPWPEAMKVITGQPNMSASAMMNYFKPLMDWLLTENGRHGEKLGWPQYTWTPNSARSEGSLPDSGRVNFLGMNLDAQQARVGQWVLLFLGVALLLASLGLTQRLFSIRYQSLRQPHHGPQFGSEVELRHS

[3] = target: T2, Alpha-2C adrenergic receptor (Homo sapiens, UniProt P18825); test: DRUGMATRIX: Adrenergic Alpha-2C radioligand binding (ligand: [3H] MK-912); assay type: cell membranes, Sf9, Membrane; conditions: sf9
T2 sequence (P18825 whole entry): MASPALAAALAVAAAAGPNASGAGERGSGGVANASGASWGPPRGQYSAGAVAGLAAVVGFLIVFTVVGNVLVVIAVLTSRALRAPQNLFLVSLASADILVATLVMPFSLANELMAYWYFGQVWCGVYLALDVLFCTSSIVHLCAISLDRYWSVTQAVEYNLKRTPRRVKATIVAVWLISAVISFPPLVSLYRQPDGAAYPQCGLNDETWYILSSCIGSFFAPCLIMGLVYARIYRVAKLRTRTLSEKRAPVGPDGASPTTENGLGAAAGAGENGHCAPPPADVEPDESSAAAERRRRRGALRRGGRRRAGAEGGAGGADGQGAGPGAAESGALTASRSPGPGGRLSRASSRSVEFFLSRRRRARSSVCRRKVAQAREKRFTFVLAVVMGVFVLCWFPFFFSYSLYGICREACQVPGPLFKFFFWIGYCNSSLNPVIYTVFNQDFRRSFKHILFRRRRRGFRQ

[4] = target: Cytochrome P450 2C19 (Homo sapiens, UniProt P33261); conditions: bti-tn-5b1-4; further: in other assays of this panel Not Active means under 50% inhibition at 10 µM
[5] = target: Substance-P receptor (Homo sapiens, UniProt P25103); assay type: cell membranes, CHO, Membrane; conditions: cho; further: in other assays of this panel Not Active means under 50% inhibition at 10 µM
[6] = DRUGMATRIX: Serotonin (5-Hydroxytryptamine) 5-HT3 radioligand binding (ligand: [3H] GR-65630); assay type: cell membranes, Membrane; conditions: hek293; Not Active = under 50% inhibition at 10 µM
[7] = target: Mu-type opioid receptor (Homo sapiens, UniProt P35372); test: DRUGMATRIX: Opiate mu (OP3, MOP) radioligand binding (ligand: [3H] Diprenorphine); assay type: cell membranes, CHO-K1, Membrane; conditions: cho-k1; Not Active = under 50% inhibition at 10 µM
[8] = target: T3, Endothelin-1 receptor (Homo sapiens, UniProt P25101); assay type: cell membranes, Membrane; conditions: cho-k1; further: in other assays of this panel Not Active means under 50% inhibition at 10 µM
T3 sequence (P25101 whole entry): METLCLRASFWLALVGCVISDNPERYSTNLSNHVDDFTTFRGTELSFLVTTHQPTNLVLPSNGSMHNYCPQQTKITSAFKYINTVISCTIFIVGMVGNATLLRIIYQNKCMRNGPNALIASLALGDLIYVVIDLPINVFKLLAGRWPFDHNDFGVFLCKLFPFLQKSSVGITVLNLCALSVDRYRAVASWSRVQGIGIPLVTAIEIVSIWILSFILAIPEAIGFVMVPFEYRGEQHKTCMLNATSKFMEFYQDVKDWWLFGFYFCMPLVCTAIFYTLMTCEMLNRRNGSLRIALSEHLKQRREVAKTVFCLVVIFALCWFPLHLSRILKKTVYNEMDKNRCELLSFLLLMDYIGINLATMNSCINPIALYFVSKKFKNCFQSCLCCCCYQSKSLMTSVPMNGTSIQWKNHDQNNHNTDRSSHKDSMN

[9] = target: Beta-3 adrenergic receptor (Homo sapiens, UniProt P13945); test: DRUGMATRIX: Adrenergic beta3 radioligand binding (ligand: [125I] Cyanopindolol); assay type: cell membranes, HEK293, Membrane; conditions: hek293; Not Active = under 50% inhibition at 10 µM
[10] = DRUGMATRIX: Glutamate, Kainate radioligand binding (ligand: [3H] Kainic acid); assay type: cell membranes, Rattus norvegicus, Wistar, Brain, Membrane; conditions: Not Active = under 50% inhibition at 10 µM
[11] = DRUGMATRIX: Potassium Channel [KATP] radioligand binding (ligand: [3H] Glyburide); assay type: cell membranes, Membrane; conditions: hit-t15; Not Active = under 50% inhibition at 10 µM
[12] = target: Voltage-gated inwardly rectifying potassium channel KCNH2 (Homo sapiens, UniProt Q12809); conditions: hek293; further: in other assays of this panel Not Active means under 50% inhibition at 10 µM
Voltage-gated inwardly rectifying potassium channel KCNH2, sequence (Q12809 whole entry): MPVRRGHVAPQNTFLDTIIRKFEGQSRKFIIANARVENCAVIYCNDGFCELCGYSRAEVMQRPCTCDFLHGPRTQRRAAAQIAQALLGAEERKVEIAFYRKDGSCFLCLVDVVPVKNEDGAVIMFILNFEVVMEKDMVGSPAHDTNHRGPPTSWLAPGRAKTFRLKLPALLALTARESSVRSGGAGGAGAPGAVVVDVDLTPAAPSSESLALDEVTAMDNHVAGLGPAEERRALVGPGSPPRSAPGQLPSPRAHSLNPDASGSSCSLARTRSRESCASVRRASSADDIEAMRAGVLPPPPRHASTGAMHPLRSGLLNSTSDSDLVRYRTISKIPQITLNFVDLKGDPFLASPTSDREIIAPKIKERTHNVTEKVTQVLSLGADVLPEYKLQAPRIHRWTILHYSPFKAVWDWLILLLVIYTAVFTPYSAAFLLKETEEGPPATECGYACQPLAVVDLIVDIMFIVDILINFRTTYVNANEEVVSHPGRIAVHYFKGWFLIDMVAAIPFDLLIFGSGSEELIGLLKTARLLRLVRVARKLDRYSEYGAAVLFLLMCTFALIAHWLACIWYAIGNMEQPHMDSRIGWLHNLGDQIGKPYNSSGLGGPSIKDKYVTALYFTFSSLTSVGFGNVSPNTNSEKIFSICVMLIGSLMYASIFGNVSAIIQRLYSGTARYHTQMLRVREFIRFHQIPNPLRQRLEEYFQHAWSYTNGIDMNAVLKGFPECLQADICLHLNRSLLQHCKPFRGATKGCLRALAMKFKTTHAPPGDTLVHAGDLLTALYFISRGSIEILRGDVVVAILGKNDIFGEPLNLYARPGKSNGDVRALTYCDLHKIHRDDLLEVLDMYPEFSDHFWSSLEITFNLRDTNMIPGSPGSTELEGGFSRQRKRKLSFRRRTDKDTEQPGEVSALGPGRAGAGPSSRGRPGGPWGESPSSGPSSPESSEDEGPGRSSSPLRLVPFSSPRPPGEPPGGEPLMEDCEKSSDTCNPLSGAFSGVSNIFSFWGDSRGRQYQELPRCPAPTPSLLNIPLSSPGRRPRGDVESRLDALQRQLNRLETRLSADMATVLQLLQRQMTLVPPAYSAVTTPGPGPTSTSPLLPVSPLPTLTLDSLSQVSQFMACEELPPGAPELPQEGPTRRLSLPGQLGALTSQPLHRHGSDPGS

Beta-3 adrenergic receptor, sequence (P13945 whole entry): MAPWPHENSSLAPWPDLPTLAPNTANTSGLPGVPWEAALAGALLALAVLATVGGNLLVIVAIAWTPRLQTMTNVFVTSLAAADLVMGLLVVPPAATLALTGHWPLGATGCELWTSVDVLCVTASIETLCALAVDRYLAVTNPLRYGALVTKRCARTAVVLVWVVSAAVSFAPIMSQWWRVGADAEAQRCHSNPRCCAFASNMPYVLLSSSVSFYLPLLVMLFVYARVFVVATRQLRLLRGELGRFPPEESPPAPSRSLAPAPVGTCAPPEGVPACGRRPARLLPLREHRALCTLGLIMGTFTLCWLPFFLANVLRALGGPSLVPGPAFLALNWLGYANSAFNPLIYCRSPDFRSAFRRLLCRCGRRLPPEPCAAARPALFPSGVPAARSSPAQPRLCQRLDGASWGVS
Cytochrome P450 2C19, sequence (P33261 whole entry): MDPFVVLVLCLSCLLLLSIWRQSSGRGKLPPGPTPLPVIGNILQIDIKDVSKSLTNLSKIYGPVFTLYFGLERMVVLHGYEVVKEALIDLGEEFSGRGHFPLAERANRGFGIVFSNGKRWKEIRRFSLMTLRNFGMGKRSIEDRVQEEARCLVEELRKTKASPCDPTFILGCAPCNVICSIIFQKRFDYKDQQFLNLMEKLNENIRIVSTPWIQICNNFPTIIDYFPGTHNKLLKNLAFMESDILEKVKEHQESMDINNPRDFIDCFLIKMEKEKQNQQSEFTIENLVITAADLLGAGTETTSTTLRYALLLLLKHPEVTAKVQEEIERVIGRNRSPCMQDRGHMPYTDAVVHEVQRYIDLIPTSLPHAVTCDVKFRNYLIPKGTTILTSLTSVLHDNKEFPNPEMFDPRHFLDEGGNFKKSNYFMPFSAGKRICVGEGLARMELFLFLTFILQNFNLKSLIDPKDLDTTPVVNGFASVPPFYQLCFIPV
Prostaglandin G/H synthase 1, sequence (P23219 whole entry): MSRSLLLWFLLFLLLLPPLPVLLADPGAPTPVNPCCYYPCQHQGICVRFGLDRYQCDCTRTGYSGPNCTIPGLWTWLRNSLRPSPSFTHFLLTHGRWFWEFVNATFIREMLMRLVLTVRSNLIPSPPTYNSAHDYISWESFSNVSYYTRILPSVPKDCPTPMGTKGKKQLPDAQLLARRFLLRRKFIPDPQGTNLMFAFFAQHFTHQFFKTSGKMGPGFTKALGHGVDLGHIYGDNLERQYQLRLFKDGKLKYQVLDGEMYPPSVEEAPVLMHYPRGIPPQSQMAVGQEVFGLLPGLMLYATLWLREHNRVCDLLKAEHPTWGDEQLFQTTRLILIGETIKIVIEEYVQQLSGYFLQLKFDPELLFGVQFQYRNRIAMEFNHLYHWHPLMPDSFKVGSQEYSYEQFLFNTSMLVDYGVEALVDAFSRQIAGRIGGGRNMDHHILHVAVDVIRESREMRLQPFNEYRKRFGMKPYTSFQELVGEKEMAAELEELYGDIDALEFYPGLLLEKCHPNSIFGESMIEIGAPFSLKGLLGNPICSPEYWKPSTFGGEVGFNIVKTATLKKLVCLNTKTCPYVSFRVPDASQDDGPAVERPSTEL
Mu-type opioid receptor, sequence (P35372 whole entry): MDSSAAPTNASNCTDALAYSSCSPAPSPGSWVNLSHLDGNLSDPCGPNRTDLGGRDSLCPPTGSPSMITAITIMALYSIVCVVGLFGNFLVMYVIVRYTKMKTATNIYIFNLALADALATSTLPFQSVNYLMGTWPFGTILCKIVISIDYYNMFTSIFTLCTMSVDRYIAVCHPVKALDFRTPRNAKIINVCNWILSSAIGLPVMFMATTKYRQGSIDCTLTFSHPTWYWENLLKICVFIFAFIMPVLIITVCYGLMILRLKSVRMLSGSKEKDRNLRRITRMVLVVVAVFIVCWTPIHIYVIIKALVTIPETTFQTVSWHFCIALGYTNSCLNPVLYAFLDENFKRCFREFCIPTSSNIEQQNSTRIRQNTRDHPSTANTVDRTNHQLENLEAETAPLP
Substance-P receptor, sequence (P25103 whole entry): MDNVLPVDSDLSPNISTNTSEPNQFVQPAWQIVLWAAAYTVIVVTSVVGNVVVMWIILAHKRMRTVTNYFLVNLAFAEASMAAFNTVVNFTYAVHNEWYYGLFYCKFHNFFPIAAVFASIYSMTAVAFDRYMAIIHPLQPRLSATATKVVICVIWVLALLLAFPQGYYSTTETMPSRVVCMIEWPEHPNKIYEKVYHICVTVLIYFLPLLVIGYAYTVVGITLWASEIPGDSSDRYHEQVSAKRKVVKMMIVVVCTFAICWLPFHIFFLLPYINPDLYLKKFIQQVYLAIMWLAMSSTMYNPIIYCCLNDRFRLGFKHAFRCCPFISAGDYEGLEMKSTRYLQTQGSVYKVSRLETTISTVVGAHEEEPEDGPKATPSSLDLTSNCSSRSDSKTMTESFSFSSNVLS

CC(C)n1c(/C=C/C(O)CC(O)CC(=O)O)c(-c2ccc(F)cc2)c2ccccc21 (stereo unspecified) [FLUVASTATIN]
Not Active: IC50 [1] | IC50 [2] | IC50 [3] | IC50 [4] | Ki [4] | IC50 [5] | IC50 [6] | Ki [6] | IC50 [7] | IC50 [8] | IC50 [9] | IC50 [10] | Ki [10] | IC50 [11] | Ki [11] | IC50 [12] | Ki [12]

NCC1(CC(=O)O)CCCCC1 [GABAPENTIN]
Not Active: IC50 [1] | IC50 [2] | IC50 [3] | IC50 [4] | Ki [4] | IC50 [5] | IC50 [6] | Ki [6] | IC50 [7] | IC50 [8] | IC50 [9] | IC50 [10] | Ki [10] | IC50 [11] | Ki [11] | IC50 [12] | Ki [12]

CC[N+](CC)(CC)CCOc1cccc(OCC[N+](CC)(CC)CC)c1OCC[N+](CC)(CC)CC.[I-].[I-].[I-] [GALLAMINE TRIETHIODIDE]
Not Active: IC50 [1] | IC50 [2] | IC50 [3] | IC50 [4] | Ki [4] | IC50 [5] | IC50 [6] | Ki [6] | IC50 [7] | IC50 [8] | IC50 [9] | IC50 [10] | Ki [10] | IC50 [11] | Ki [11] | IC50 [12] | Ki [12]

Nc1nc2c(ncn2COC(CO)CO)c(=O)[nH]1 [GANCICLOVIR]
Not Active: IC50 [1] | IC50 [2] | IC50 [3] | IC50 [4] | Ki [4] | IC50 [5] | IC50 [6] | Ki [6] | IC50 [7] | IC50 [8] | IC50 [9] | IC50 [10] | Ki [10] | IC50 [11] | Ki [11] | IC50 [12] | Ki [12]

COc1c(N2CCNC(C)C2)c(F)cc2c(=O)c(C(=O)O)cn(C3CC3)c12 (stereo unspecified) [GATIFLOXACIN]
Not Active: IC50 [1] | IC50 [2] | IC50 [3] | IC50 [4] | Ki [4] | IC50 [5] | IC50 [6] | Ki [6] | IC50 [7] | IC50 [8] | IC50 [9] | IC50 [10] | Ki [10] | IC50 [11] | Ki [11] | IC50 [12] | Ki [12]

CC1(C)[C@@H](O[C@H]2O[C@H](C(=O)O)[C@@H](O)[C@H](O)[C@H]2O[C@@H]2O[C@H](C(=O)O)[C@@H](O)[C@H](O)[C@H]2O)CC[C@]2(C)[C@H]3C(=O)C=C4[C@@H]5C[C@@](C)(C(=O)O)CC[C@]5(C)CC[C@@]4(C)[C@]3(C)CC[C@@H]12 [GLYCYRRHIZIN]
Not Active: IC50 [1] | IC50 [2] | IC50 [3] | IC50 [4] | Ki [4] | IC50 [5] | IC50 [6] | Ki [6] | IC50 [7] | IC50 [8] | IC50 [9] | IC50 [10] | Ki [10] | IC50 [11] | Ki [11] | IC50 [12] | Ki [12]

COC1=CC(=O)C[C@@H](C)[C@]12Oc1c(Cl)c(OC)cc(OC)c1C2=O [GRISEOFULVIN]
Not Active: IC50 [1] | IC50 [2] | IC50 [3] | IC50 [4] | Ki [4] | IC50 [5] | IC50 [6] | Ki [6] | IC50 [7] | IC50 [8] | IC50 [9] | IC50 [10] | Ki [10] | IC50 [11] | Ki [11] | IC50 [12] | Ki [12]

C/C=C1\[C@H]2C=C(C)C[C@]1(N)c1ccc(=O)[nH]c1C2 [HUPERZINE A]
Not Active: IC50 [1] | IC50 [2] | IC50 [3] | IC50 [4] | Ki [4] | IC50 [5] | IC50 [6] | Ki [6] | IC50 [7] | IC50 [8] | IC50 [9] | IC50 [10] | Ki [10] | IC50 [11] | Ki [11] | IC50 [12] | Ki [12]
